Experimental data published in ChEMBL document CHEMBL1127803 (J Med Chem, 1994).
Where a SMILES comes first, the peptide text is derived from it. [ ]: non-standard residue; d: D form. The star is where a group is joined. Tyr(Nα,Nα-allyl2) = C=CCN(CC=C)[C@@H](Cc1ccc(O)cc1)C(=O)*; Aib = CC(C)(N)C(=O)O

Columns and labels:
Mu-type opioid receptor [1] = target: Mu-type opioid receptor (Cavia porcellus, UniProt P97266); assay: Tested for agonist activity against mu opioid receptor in guinea pig ileum; assay type: functional, tissue-based
Mu-type opioid receptor (Cavia porcellus, UniProt P97266), sequence (P97266 whole entry): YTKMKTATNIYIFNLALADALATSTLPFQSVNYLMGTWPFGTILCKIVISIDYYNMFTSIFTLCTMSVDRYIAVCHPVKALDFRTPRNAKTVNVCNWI

[2] = target: T1, Delta-type opioid receptor (Mus musculus, UniProt P32300); assay: Tested for inhibition of binding of [3H]DADLE to mouse brain membranes depleted of mu binding sites by pretreatment with irreversible ligand BIT for delta opioid receptor; design: species or system Membrane
T1 sequence (P32300 whole entry): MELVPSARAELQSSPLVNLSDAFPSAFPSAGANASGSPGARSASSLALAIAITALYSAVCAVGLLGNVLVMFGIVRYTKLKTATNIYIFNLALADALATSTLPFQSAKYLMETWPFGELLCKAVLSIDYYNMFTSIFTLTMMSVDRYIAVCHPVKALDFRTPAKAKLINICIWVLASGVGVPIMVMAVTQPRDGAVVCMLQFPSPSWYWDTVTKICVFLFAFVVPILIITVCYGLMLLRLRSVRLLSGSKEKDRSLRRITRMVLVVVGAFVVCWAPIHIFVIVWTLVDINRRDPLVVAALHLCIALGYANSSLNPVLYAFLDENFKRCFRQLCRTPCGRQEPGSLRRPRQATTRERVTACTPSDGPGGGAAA

Mu-type opioid receptor [3] = target: Mu-type opioid receptor (Rattus norvegicus, UniProt P33535); assay: Evaluated for inhibition of [3H]DAMGO binding from mu receptor in rat brain membranes; assay type: cell membranes
Mu-type opioid receptor (Rattus norvegicus, UniProt P33535), sequence (P33535 whole entry): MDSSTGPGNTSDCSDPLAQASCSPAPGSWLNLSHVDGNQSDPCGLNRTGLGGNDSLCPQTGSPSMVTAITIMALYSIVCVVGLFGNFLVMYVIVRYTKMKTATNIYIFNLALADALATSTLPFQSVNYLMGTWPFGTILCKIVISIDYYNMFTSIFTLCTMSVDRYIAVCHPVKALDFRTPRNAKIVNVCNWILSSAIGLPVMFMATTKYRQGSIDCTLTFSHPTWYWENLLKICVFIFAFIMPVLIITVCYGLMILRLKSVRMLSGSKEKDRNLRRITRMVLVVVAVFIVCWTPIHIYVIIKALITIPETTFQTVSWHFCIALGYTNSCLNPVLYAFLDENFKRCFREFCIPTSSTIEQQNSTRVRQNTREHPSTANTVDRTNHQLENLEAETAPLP

[4] = target: T1, Delta-type opioid receptor; assay: Tested for agonist activity against delta opioid receptor mouse vas deferens; assay type: functional, tissue-based

With `CC(C)[C@H](NC(=O)[C@H](CCC(=O)O)NC(=O)[C@H](Cc1ccccc1)NC(=O)[C@@H](C)NC(=O)[C@@H](N)Cc1ccc(O)cc1)C(=O)N[C@H](C(=O)NCC(=O)O)C(C)C` [DELTORPHIN] the IC50 (Mu-type opioid receptor [1]) was 15 µM.

`C=CCN1C[C@H](C)N(C(c2ccc(C(=O)N(CC)CC)cc2)c2cccc(O)c2)C[C@H]1C` (single isomer, unassigned; (+)-1) showed an IC50 [2] of 0.31 nM.

In the case of `C=CCN1C[C@H](C)N(C(c2ccc(C(=O)N(CC)CC)cc2)c2cccc(O)c2)C[C@H]1C` (single isomer, unassigned; (+)-10), the IC50 [2] is reported as 5.96 nM.

Compound `C=CCN1C[C@H](C)N([C@H](c2ccc(C(=O)N(CC)CC)cc2)c2cccc(OC)c2)C[C@H]1C` [SNC-80] has an IC50 (Mu-type opioid receptor [3]) of 5.71 µM.

For `C=CCN1CC(C)N([C@H](c2ccc(C(=O)N(CC)CC)cc2)c2cccc(OC)c2)CC1C` (single isomer, unassigned) [SNC-80], the IC50 (Mu-type opioid receptor [3]) was 9.37 µM.

In the case of `C=CCN1C[C@@H](C)N([C@H](c2ccc(C(=O)N(CC)CC)cc2)c2cccc(O)c2)C[C@@H]1C`, the IC50 [2] is reported as 9.58 nM.

In the case of `C=CCN1C[C@H](C)N([C@@H](c2ccc(C(=O)N(CC)CC)cc2)c2cccc(OC)c2)C[C@H]1C`, the IC50 (Mu-type opioid receptor [3]) is reported as 2.47 µM and the IC50 (Mu-type opioid receptor [1]) is reported as 5.46 µM.

`C=CCN1C[C@@H](C)N(C(c2ccc(C(=O)N(CC)CC)cc2)c2cccc(OC)c2)C[C@@H]1C` (single isomer, unassigned) showed an IC50 (Mu-type opioid receptor [3]) of 9.14 µM and an IC50 (Mu-type opioid receptor [1]) of 1.52 µM.

`C=CCN1CC(C)N(C(c2ccc(C(=O)N(CC)CC)cc2)c2cccc(O)c2)CC1C` (racemic) showed an IC50 [4] of 0.2 nM, an IC50 [2] of 0.92 nM and an IC50 (Mu-type opioid receptor [1]) of 0.143 µM.

Work on `C=CCN(CC=C)[C@@H](Cc1ccc(O)cc1)C(=O)NC(C)(C)C(=O)NC(C)(C)C(=O)N[C@@H](Cc1ccccc1)C(=O)N[C@@H](CC(C)C)C(=O)O.C=CCN1C[C@H](C)N([C@@H](c2ccc(C(=O)N(CC)CC)cc2)c2cccc(OC)c2)C[C@H]1C` ({Tyr(Nα,Nα-allyl2)}-[Aib][Aib]FL-OH) yielded an IC50 [4] of 3250 nM.

`C=CCN1C[C@@H](C)N([C@@H](c2ccc(C(=O)N(CC)CC)cc2)c2cccc(O)c2)C[C@@H]1C` was tested, and the IC50 [2] was 0.49 nM.
